Measured values published in patent publication US20250230244A1, “METHODS AND COMPOSITIONS COMPRISING B7-H3 BINDING POLYPETIDES” (BOARD OF REGENTS, THE UNIVERSITY OF TEXAS SYSTEM, priority 2021, published 2025).

How the values were obtained:
[1] = tested on: AML cell lines (OCI-AML3, MV4-11, and U937); assay: NK cell ADCC, annexin V binding, Incucyte, AML cell lines; type: cell-based, human
Description: For live-cell apoptosis analysis, the inventors stained OCI-AML3, MV4-11, U937, and primary cells with CytoLight Red (#4482; Essen BioScience). […] Time-lapse fluorescence imaging was performed using an Incucyte live-cell imaging system (Essen BioScience) to assess apoptosis induction every 1 hour for 20-48 hours. The apoptosis in leukemic cells was measured by green and red overlap counts.
Rituximab is a chimeric anti-CD20 antibody that was used as a non-specific control antibody. NK cell-induced apoptosis was measured by annexin V binding assay using the Incucyte live-cell imaging system. […] Representative images of OCI-AML3 cells undergoing apoptosis at different time points in different treatment conditions are shown in FIG. 12A.

[2] = tested on: BC cell lines (MCF7 and HCC38); assay: NK cell-mediated ADCC in breast cancer cell lines; type: cell-based, human; conditions: 10 μg/mL
Excerpt: Rituximab is a chimeric anti-CD20 antibody that was used as a nonspecific control antibody.

rituximab [reference compound]
apoptosis of leukemic cells (NK cell ADCC) ([1]; 1, 5, and 10 μg/mL, with NK cells, 8:1 ratio): did not show significant outcomes | killing of leukemic cells, antibody alone, at 28 and 22 hours ([1]; antibody alone): no effect on killing leukemic cells | apoptosis in BC cells (ADCC) ([2]; with NK cells, 15:1 NK-to-target cell ratio): did not show significant outcomes | killing of BC cells, antibody alone, after 10 hours ([2]; without NK cells): did not affect the killing of BC cells
